We go through seven compounds from patent publication US11584709B2, “Multitarget drug for treating diseases in mammals” (“PHARMENTERPRISES EURASIA” LIMITED LIABILITY COMPANY, priority 2017, dated 2023).

The subject of data set [1] is motility of the gastrointestinal tract. The experiment in a line: Model of irritable bowel syndrome: motility of the gastrointestinal tract (activated carbon). Format: in vivo, nonlinear male mice. How it is done: The effect on the motility of the gastrointestinal tract was studied on a model of irritable bowel syndrome in nonlinear male mice weighing 24-30 g. The animals were intragastrically injected with a solution of activated carbon (50 mg/ml, in a volume of 10 ml/kg) and the speed (in minutes) of the movement of activated coal through the intestines of animals. The compounds under study were intragastrically administered once 1 hour before the introduction of activated carbon. Drotaverine (6.7 mg/kg), Buscopan (3 mg/kg) and Trimedat (33 mg/kg) were used as reference drugs.

The subject of data set [2] is imiquimod-induced ear psoriasis. Briefly: Mouse model of imiquimod-induced ear psoriasis. Type of data set: in vivo, female balb/c mice. As to conditions: 0.05%, M ± m, n = 10. The procedure:
Psoriasis was simulated in female balb/c mice by applying Aldar cream (5% imiquimod) on the inner side of the right ear daily 1 time per day for 10 days (J Immunol. 2009 May 1; 182(9):5836-45). Vaseline was applied to intact animals: 20 mg on the right ear.
The assessment of the development of pathology was performed on 2nd, 4th, 6th, 8th and 10th day before the next application of Aldar cream by measuring the thickness of the left and right ears.

Data set [3] deals with imiquimod-induced psoriasis on the back. Briefly: Mouse model of imiquimod-induced psoriasis on the back. Type of data set: in vivo. How it is done: Psoriasis was simulated in female balb/c mice by applying Aldar cream (5% imiquimod) on a previously shaved skin back area of 3×4 cm daily 1 time per day for 15 days (J Immunol. 2009 May 1; 182(9):5836-45). Intact animals were applied with vaseline: 120 mg per the shaved back area.
The assessment of the development of pathology was performed on the 10th, 12th, 13th and 15th day before the next application of Aldar cream according to the index: the thickness of the skin fold on the back. The thickness of the skin fold on the back was measured with a Digimatic MK-25 micrometer (Mitutoyo, Japan).

The test system of data set [4] is diarrhea induced by castor oil. The experiment in a line: Mouse model of diarrhea induced by castor oil. Format: in vivo, Balb/c mice. As to conditions: 1 mg/kg; M ± m, n = 10; observation 4 hours. The procedure: Balb/c mice, which starved for 24 hours, were given castor oil intragastrically. Then the animals were encaged into individual cages with a bottom covered with white paper, and time before the onset of diarrhea was noted. The observation time is 4 hours (J Pharm Pharmacol. 2015 February; 67(2):244-54).

Data set [5] has as its system indomethacin colitis. Briefly: Model of colitis induced by indomethacin. Type of data set: in vivo, male Wistar rats. The note with it: day 4. How it is done:
The study was performed on male Wistar rats, which were subcutaneously injected with an indomethacin solution in a dose of 9 mg/kg for two days running to induce colitis. The injection solution was prepared as follows: first, indomethacin was dissolved in 100% ethanol, then it was diluted in 5% NaHCO3 solution. On the 4th day after euthanasia, the stomach and intestine were removed from the animals in the CO2 chamber, then the caecum was excised, 10 cm from the ileum and large intestine was cut off, and 5 cm—from the caecum, to assess gross lesions (J Ethnopharmacol. 2004 February; 90(2-3): 195-204).

The test system of data set [6] is model of Crohn's disease. Briefly: Mouse model of Crohn's disease (TNBS). Format: in vivo, male balb/c mice. The note with it: for The portion of dead animals: TNBS, 7 days, 10 animals. How it is done: The study was performed on male balb/c mice. Animals, which starved for 24 hours, were injected with 150 μl/mouse of TNBS solution in 50% ethanol into the rectal hole of the mouse to the depth of 4 cm using a 3.5 F catheter. Next, the mice were turned upside down and held for 60 seconds. 150 μl of the 50% ethanol solution was injected into the healthy control (intact animals). The study lasted 7 days. The development of pathology was assessed by the death of animals.

Setting [7] is: inducer alone (control group), 9 mg/kg subcutaneously two days running.

As to `CCCC[N+]1(C)[C@@H]2C[C@@H](OC(=O)[C@H](CO)c3ccccc3)C[C@H]1[C@@H]1O[C@@H]12` (some centres unmarked) [Buscopan, reference compound], the “The evacuation speed of activated carbon” value in data set [1] (3 mg/kg once intragastrically 1 hour before activated carbon) amounted to 73.2 ± 2.87 min.
Regarding `CCC(=O)O[C@]1(C(=O)CCl)[C@@H](C)C[C@H]2[C@@H]3CCC4=CC(=O)C=C[C@]4(C)[C@@]3(F)[C@@H](O)C[C@@]21C` [Dermovate, clobetasol, reference compound], the “The gain in the thickness of the right (affected) ear relatively day 0” value in data set [2] (day 2) was found to be 18.9%; in data set [2] (day 4), 22.6%; in data set [2] (day 6), 24.6%; in data set [2] (day 8), 21.3%; in data set [2] (day 10), 16.5%. Further, the “The gain of the thickness of the back skin to the thickness before the start of the study” value in data set [3] (0.05%, day 10, M ± m, n = 10) is recorded as −26.8%. Also, in data set [3] (on the 12th day of the study, thinning the skin), the toxic effect result was “total death of animals”.
Consider `CCOc1ccc(/C=C2\NCCc3cc(OCC)c(OCC)cc32)cc1OCC` [Drotaverine, reference compound], for which, in data set [4], the “The time of onset of diarrhea” value is 43.60 ± 2.61& min. In addition, in data set [1] (6.7 mg/kg once intragastrically 1 hour before activated carbon), the “The evacuation speed of activated carbon” value is 105.85 ± 2.39 min.
Regarding `COc1ccc2c(c1)c(CC(=O)O)c(C)n2C(=O)c1ccc(Cl)cc1` [Indomethacin], in data set [5] (setting [7]), the “Macroscopic assessment of the lesion, Caecum” value was 1.2 ± 0.4 points; the “Macroscopic assessment of the lesion, Ileum” value came out at 5.6 ± 1.2 points; the “Macroscopic assessment of the lesion, Large intestine” value stood at 1.2 ± 0.3 points; the “Macroscopic assessment of the lesion, Overall assessment” value is 8.0 ± 1.3 points.
On to `CN(C)C(=O)C(CCN1CCC(O)(c2ccc(Cl)cc2)CC1)(c1ccccc1)c1ccccc1` [Loperamide, reference compound], for which the “The time of onset of diarrhea” value in data set [4] is given as 56.40 ± 5.14& min.
On to `C[C@]12C=CC(=O)C=C1CC[C@@H]1[C@@H]2[C@@H](O)C[C@@]2(C)[C@H]1CC[C@]2(O)C(=O)CO` [Prednisolone], for which, in data set [5] (2 mg/kg, M ± m, n = 10), the “Macroscopic assessment of the lesion, Caecum” value is recorded as 0.3 ± 0.2& points; the “Macroscopic assessment of the lesion, Ileum” value is on record as 0.6 ± 0.6& points; the “Macroscopic assessment of the lesion, Large intestine” value was 0.4 ± 0.2 points; the “Macroscopic assessment of the lesion, Overall assessment” value is recorded as 1.3 ± 0.9& points. In addition, the “The portion of dead animals” value in data set [6] (5 mg/kg, 1 time per day) is 80%. Also, the “The portion of dead animals” value in data set [6] (10 mg/kg) is recorded as 60%. Moreover, the “reduction of the mortality” value in data set [6] (summary of Table 4) is on record as 20-40%.
`CCC(COC(=O)c1cc(OC)c(OC)c(OC)c1)(c1ccccc1)N(C)C.O=C(O)/C=C\C(=O)O` (centres unmarked) [Trimedat, reference compound]: the “The evacuation speed of activated carbon” value in data set [1] (33 mg/kg once intragastrically 1 hour before activated carbon) amounted to 83.65 ± 2.42 min.
